In US20180042234A1, “FUNGICIDAL PYRAZOLES” (E I DU PONT DE NEMOURS AND COMPANY, priority 2015, published 2018):
Marks after values point to notes of the source that are not given here.

Experiments:
Type in all cases: in vivo
[1] = test system: Septoria tritici; test: Test B: wheat leaf blotch, preventive spray on wheat seedlings, visual disease rating
Excerpt: (§1) General protocol for preparing test suspensions for Tests A-E: the test compounds were first dissolved in acetone in an amount equal to 3% of the final volume and then suspended at the desired concentration (in ppm) in acetone and purified water (50/50 mix by volume) containing 250 ppm of the surfactant Trem® 014 (polyhydric alcohol esters). The resulting test suspensions were then used in Tests A-E. Spraying a 200 ppm test suspension to the point of run-off on the test plants was the equivalent of a rate of 800 g/ha.
The test suspension was sprayed to the point of run-off on wheat seedlings. The following day the seedlings were inoculated with a spore suspension of Septoria tritici (the causal agent of wheat leaf blotch) and incubated in a saturated atmosphere at 24° C. for 48 h, and then moved to a growth chamber at 20° C. for 19 days, after which time visual disease ratings were made.
(§2) Results for Tests A-E are given in Table A. In the Table, a rating of 100 indicates 100% disease control and a rating of 0 indicates no disease control (relative to the controls). A dash (-) indicates no test results. All results are for 200 ppm except where followed by an asterisk “*” which indicates a 250 ppm test suspension was used or a double asterisk “**” which indicates a 50 ppm test suspension was used.

[2] = test system: Puccinia recondita f. sp. tritici; test: Test A: wheat leaf rust, preventive spray on wheat seedlings, visual disease rating
Excerpt: as §1
The test suspension was sprayed to the point of run-off on wheat seedlings. The following day the seedlings were inoculated with a spore suspension of Puccinia recondita f. sp. tritici (the causal agent of wheat leaf rust) and incubated in a saturated atmosphere at 20° C. for 24 h, and then moved to a growth chamber at 20° C. for 7 days, after which time visual disease ratings were made.
as §2

[3] = test system: Blumeria graminis f sp. tritici; test: Test D: wheat powdery mildew, preventive spray on wheat seedlings, visual disease rating
Excerpt: as §1
The test suspension was sprayed to the point of run-off on wheat seedlings. The following day the seedlings were inoculated with a spore dust of Blumeria graminis f sp. tritici, (also known as Erysiphe graminis f sp. tritici, the causal agent of wheat powdery mildew) and incubated in a growth chamber at 20° C. for 8 days, after which time visual disease ratings were made.
as §2

[4] = test system: Botrytis cinerea; test: Test C: tomato Botrytis, preventive spray on tomato seedlings, visual disease rating
Excerpt: as §1
The test suspension was sprayed to the point of run-off on tomato seedlings. The following day the seedlings were inoculated with a spore suspension of Botrytis cinerea (the causal agent of tomato Botrytis) and incubated in a saturated atmosphere at 20° C. for 48 h, and then moved to a growth chamber at 24° C. for 3 days, after which time visual disease ratings were made.
as §2

[5] = 200 ppm test suspension, 100 = 100% disease control, 0 = no control

CCCCC(CC)c1c(C)nn(C)c1Nc1ccc(F)cc1Cl (stereo not shown) [Compound 3]
Test B disease control rating ([1]; 200 ppm test suspension): 0% | Test A disease control rating [2, 5]: 9% | Test D disease control rating ([3]; 200 ppm test suspension): 0%

Cn1nc(Br)c(C2OCCCO2)c1C(O)c1ccc(F)cc1Cl (stereo not shown) [Compound 8]
Test C disease control rating ([4]; 250 ppm test suspension (*)): 0* % | Test B disease control rating ([1]; 250 ppm test suspension (*)): 5* % | Test A disease control rating ([2]; 250 ppm test suspension (*)): 0* % | Test D disease control rating ([3]; 250 ppm test suspension (*)): 72* %

Cn1nc(Br)c(C2OCCCO2)c1C(O)c1ccc(F)cc1Br (stereo not shown) [Compound 9]
Test C disease control rating ([4]; 250 ppm test suspension (*)): 0* % | Test B disease control rating ([1]; 250 ppm test suspension (*)): 0* % | Test A disease control rating ([2]; 250 ppm test suspension (*)): 0* % | Test D disease control rating ([3]; 250 ppm test suspension (*)): 64* %

Cn1nc(Br)c(C2OCCCO2)c1C(O)c1ccc(F)cc1F (stereo not shown) [Compound 10]
Test C disease control rating ([4]; 250 ppm test suspension (*)): 0* % | Test B disease control rating ([1]; 250 ppm test suspension (*)): 0* % | Test A disease control rating ([2]; 250 ppm test suspension (*)): 0* % | Test D disease control rating ([3]; 250 ppm test suspension (*)): 90* %

Cc1nn(C)c(C(O)c2ccc(F)cc2F)c1C1CCCCC1 (stereo not drawn) [Compound 12, 4-cyclohexyl-α-(2,4-difluorophenyl)-1,3-dimethyl-1H-pyrazole-5-methanol]
Test C disease control rating ([4]; 250 ppm test suspension (*)): 61* % | Test B disease control rating ([1]; 250 ppm test suspension (*)): 100* % | Test A disease control rating ([2]; 250 ppm test suspension (*)): 94* % | Test D disease control rating ([3]; 250 ppm test suspension (*)): 97* %

Cc1nn(C)c(Nc2ccc(F)cc2F)c1C1=CCC(C#N)CC1 (stereo not shown) [Compound 18]
Test C disease control rating ([4]; 250 ppm test suspension (*)): 73* % | Test B disease control rating ([1]; 250 ppm test suspension (*)): 79* % | Test A disease control rating ([2]; 250 ppm test suspension (*)): 19* % | Test D disease control rating ([3]; 250 ppm test suspension (*)): 0* %

Cc1nn(C)c(Nc2ccc(F)cc2F)c1C1CCC(C)(C)CC1 [Compound 19]
Test C disease control rating ([4]; 250 ppm test suspension (*)): 0* % | Test B disease control rating ([1]; 250 ppm test suspension (*)): 1* % | Test A disease control rating ([2]; 250 ppm test suspension (*)): 0* % | Test D disease control rating ([3]; 250 ppm test suspension (*)): 96* %

Cc1nn(C)c(Nc2ccc(F)cc2Cl)c1C1=CCOCC1 [Compound 21]
Test C disease control rating ([4]; 250 ppm test suspension (*)): 42* % | Test B disease control rating ([1]; 250 ppm test suspension (*)): 17* % | Test A disease control rating ([2]; 250 ppm test suspension (*)): 0* % | Test D disease control rating ([3]; 250 ppm test suspension (*)): 13* %

Cc1nn(C)c(Nc2c(F)cc(Cl)cc2F)c1C1=CCCCC1C (stereo not shown) [Compound 22]
Test C disease control rating ([4]; 200 ppm test suspension): 99% | Test A disease control rating [2, 5]: 68% | Test D disease control rating ([3]; 200 ppm test suspension): 56%

CCC(C)c1c(C)nn(C)c1Nc1c(F)cc(Cl)cc1F (stereo not shown) [Compound 23, N-(4-chloro-2,6-difluorophenyl)-1,3-dimethyl-4-(1-methylpropyl)-1H-pyrazol-5-amine]
Test C disease control rating ([4]; 200 ppm test suspension): 98% | Test A disease control rating [2, 5]: 68% | Test D disease control rating ([3]; 200 ppm test suspension): 95%

CC=C(C)c1c(C)nn(C)c1Nc1c(F)cc(Cl)cc1F [Compound 24, N-(4-chloro-2,6-difluorophenyl)-1,3-dimethyl-4-(1-methyl-1-propen-1-yl)-1H-pyrazol-5-amine]
Test C disease control rating ([4]; 200 ppm test suspension): 85% | Test B disease control rating ([1]; 200 ppm test suspension): 96% | Test A disease control rating [2, 5]: 94% | Test D disease control rating ([3]; 200 ppm test suspension): 100%

CCC(OC)c1c(C)nn(C)c1Oc1c(F)cccc1F (stereo not shown) [Compound 25]
Test C disease control rating ([4]; 250 ppm test suspension (*)): 0* % | Test B disease control rating ([1]; 250 ppm test suspension (*)): 6* % | Test A disease control rating ([2]; 250 ppm test suspension (*)): 99* % | Test D disease control rating ([3]; 250 ppm test suspension (*)): 0* %

CCON=C(C)c1c(C)nn(C)c1Nc1ccc(F)cc1Cl [Compound 26]
Test C disease control rating ([4]; 250 ppm test suspension (*)): 0* % | Test B disease control rating ([1]; 250 ppm test suspension (*)): 33* % | Test A disease control rating ([2]; 250 ppm test suspension (*)): 0* % | Test D disease control rating ([3]; 250 ppm test suspension (*)): 0* %

CCCON=C(C)c1c(C)nn(C)c1Nc1ccc(F)cc1Cl [Compound 27]
Test C disease control rating ([4]; 250 ppm test suspension (*)): 0* % | Test B disease control rating ([1]; 250 ppm test suspension (*)): 17* % | Test A disease control rating ([2]; 250 ppm test suspension (*)): 9* % | Test D disease control rating ([3]; 250 ppm test suspension (*)): 69* %

CC(=NOC(C)C)c1c(C)nn(C)c1Nc1ccc(F)cc1Cl [Compound 28]
Test C disease control rating ([4]; 250 ppm test suspension (*)): 0* % | Test B disease control rating ([1]; 250 ppm test suspension (*)): 24* % | Test A disease control rating ([2]; 250 ppm test suspension (*)): 32* % | Test D disease control rating ([3]; 250 ppm test suspension (*)): 0* %

CCON=C(C)c1c(C)nn(C)c1N(CC)c1ccc(F)cc1Cl [Compound 29]
Test C disease control rating ([4]; 250 ppm test suspension (*)): 0* % | Test B disease control rating ([1]; 250 ppm test suspension (*)): 14* % | Test A disease control rating ([2]; 250 ppm test suspension (*)): 55* % | Test D disease control rating ([3]; 250 ppm test suspension (*)): 0* %

CON=C(C)c1c(C)nn(C)c1Nc1ccc(F)cc1Cl [Compound 30]
Test C disease control rating ([4]; 250 ppm test suspension (*)): 0* % | Test B disease control rating ([1]; 250 ppm test suspension (*)): 14* % | Test A disease control rating ([2]; 250 ppm test suspension (*)): 80* % | Test D disease control rating ([3]; 250 ppm test suspension (*)): 0* %

CC(=CC(C)C)c1c(C)nn(C)c1Nc1ccc(F)cc1Cl [Compound 31]
Test C disease control rating ([4]; 250 ppm test suspension (*)): 0* % | Test B disease control rating ([1]; 250 ppm test suspension (*)): 6* % | Test A disease control rating ([2]; 250 ppm test suspension (*)): 55* % | Test D disease control rating ([3]; 250 ppm test suspension (*)): 48* %

CC(=O)c1c(C)nn(C)c1Nc1ccc(F)cc1Cl [Compound 32]
Test C disease control rating ([4]; 250 ppm test suspension (*)): 56* % | Test A disease control rating ([2]; 250 ppm test suspension (*)): 19* % | Test D disease control rating ([3]; 250 ppm test suspension (*)): 0* %

CON=C(C)c1c(C)nn(C)c1N(C)c1ccc(F)cc1Cl [Compound 33]
Test C disease control rating ([4]; 50 ppm test suspension (**)): 7** % | Test B disease control rating ([1]; 50 ppm test suspension (**)): 0** % | Test A disease control rating ([2]; 50 ppm test suspension (**)): 17** % | Test D disease control rating ([3]; 50 ppm test suspension (**)): 0** %

C=Cc1c(C)nn(C)c1Oc1ccc(F)cc1Cl [Compound 35]
Test C disease control rating ([4]; 250 ppm test suspension (*)): 0* % | Test B disease control rating ([1]; 250 ppm test suspension (*)): 0* % | Test A disease control rating ([2]; 250 ppm test suspension (*)): 8* % | Test D disease control rating ([3]; 250 ppm test suspension (*)): 26* %

Cc1nn(C)c(Oc2ccc(F)cc2Cl)c1C1OCCCO1 [Compound 37]
Test C disease control rating ([4]; 250 ppm test suspension (*)): 0* % | Test B disease control rating ([1]; 250 ppm test suspension (*)): 5* % | Test A disease control rating ([2]; 250 ppm test suspension (*)): 52* % | Test D disease control rating ([3]; 250 ppm test suspension (*)): 63* %

Cc1nn(C)c(Oc2ccc(F)cc2Cl)c1C1OCC(C)(C)CO1 [Compound 38]
Test C disease control rating ([4]; 250 ppm test suspension (*)): 0* % | Test B disease control rating ([1]; 250 ppm test suspension (*)): 93* % | Test A disease control rating ([2]; 250 ppm test suspension (*)): 52* % | Test D disease control rating ([3]; 250 ppm test suspension (*)): 94* %

C=C(C)c1c(C)nn(C)c1Oc1ccc(F)cc1Cl [Compound 39]
Test C disease control rating ([4]; 250 ppm test suspension (*)): 0* % | Test B disease control rating ([1]; 250 ppm test suspension (*)): 0* % | Test A disease control rating ([2]; 250 ppm test suspension (*)): 15* % | Test D disease control rating ([3]; 250 ppm test suspension (*)): 13* %

CC1=NOC(c2c(C)nn(C)c2Oc2ccc(F)cc2Cl)C1 (stereo not shown) [Compound 40]
Test C disease control rating ([4]; 250 ppm test suspension (*)): 33* % | Test B disease control rating ([1]; 250 ppm test suspension (*)): 36* % | Test A disease control rating ([2]; 250 ppm test suspension (*)): 30* % | Test D disease control rating ([3]; 250 ppm test suspension (*)): 81* %

Cc1nn(C)c(Oc2ccc(F)cc2Cl)c1C(C)O (stereo not shown) [Compound 41]
Test C disease control rating ([4]; 250 ppm test suspension (*)): 0* % | Test B disease control rating ([1]; 250 ppm test suspension (*)): 0* % | Test A disease control rating ([2]; 250 ppm test suspension (*)): 0* % | Test D disease control rating ([3]; 250 ppm test suspension (*)): 46* %

Cc1nn(C)c(Oc2ccc(F)cc2Cl)c1C=NO [Compound 42]
Test C disease control rating ([4]; 250 ppm test suspension (*)): 7* % | Test B disease control rating ([1]; 250 ppm test suspension (*)): 0* % | Test A disease control rating ([2]; 250 ppm test suspension (*)): 9* % | Test D disease control rating ([3]; 250 ppm test suspension (*)): 81* %

Cc1nn(C)c(Oc2ccc(F)cc2Cl)c1C1=NOC(C)(C)C1 [Compound 53]
Test C disease control rating ([4]; 250 ppm test suspension (*)): 0* % | Test B disease control rating ([1]; 250 ppm test suspension (*)): 2* % | Test A disease control rating ([2]; 250 ppm test suspension (*)): 0* % | Test D disease control rating ([3]; 250 ppm test suspension (*)): 90* %

Cc1nn(C)c(Oc2ccc(F)cc2Cl)c1C1=NOC(C#N)C1 (stereo not shown) [Compound 55]
Test C disease control rating ([4]; 250 ppm test suspension (*)): 0* % | Test B disease control rating ([1]; 250 ppm test suspension (*)): 0* % | Test A disease control rating ([2]; 250 ppm test suspension (*)): 0* % | Test D disease control rating ([3]; 250 ppm test suspension (*)): 73* %
